Among the data in patent publication US5935952A, “Quinolone- or naphthylidone-carboxylic acid derivates or their salts” (Toyama Chemical Co., LTD., priority 1994, dated 1999) are MIC values, retold here.

Holding throughout (type): cell-based
In one test the test system is S. aureus FDA 209P. Kind of test: Antibacterial activity (MIC, agar dilution, standard method of Japan Society of Chemotherapy) against S. aureus FDA 209P. Particulars: Staphylococcus aureus, FDA209P. The text has this:
(§1) According to the standard method of Japan Society of Chemotherapy [CHEMOTHERAPY, vol.

The next test has as its system E. coli NIHJ JC-2. Kind of test: Antibacterial activity (MIC, agar dilution, standard method of Japan Society of Chemotherapy) against E. coli NIHJ JC-2. Particulars: Escherichia coli.
From the text: as §1

The next test deals with S. aureus F-137. Kind of test: Antibacterial activity (MIC, agar dilution, standard method of Japan Society of Chemotherapy) against S. aureus F-137*. Particulars: Staphylococcus aureus, F137; S. aureus F-137, β-lactamase-producing bacteria; Mueller Hinton agar, 37° C., 20 hours, 10^6 cells/plate.
From the text: as §1
*: β-lactamase-producing bacteria
Background: In agar dilution the substance is mixed into plates at graded concentrations.

A further test deals with S. aureus F-597. In words: Antibacterial activity (MIC, agar dilution, standard method of Japan Society of Chemotherapy) against S. aureus F-597**. The note with it: Staphylococcus aureus; S. aureus F-597, MRSA (methicillin-resistant S. aureus); Mueller Hinton agar, 37° C., 20 hours, 10^6 cells/plate.
From the text: as §1
**: MRSA (methicillin-resistant S. aureus)

≈ marks a conversion by molar mass, not a printed value. Where two headings read alike, the source gives them in different places.

One may read the MIC as the lowest concentration found to suppress growth. In the case of `O=C(O)c1cn(C2CC2)c2cc(N3CCNCC3)c(F)cc2c1=O` [Compound B, 1-cyclopropyl-6-fluoro-7-(1-piperazinyl)-1,4-dihydro-4-oxoquinoline-3-carboxylic acid, reference compound], the MIC was 0.2 µg/mL (≈ 0.604 µM) in the test with S. aureus FDA 209P (20 h) and at most 0.05 µg/mL in the test on E. coli NIHJ JC-2 (NIHJJC2, 20 h).
In the case of `Cc1c(-c2ccc3c(c2)CNC3)c(F)cc2c(=O)c(C(=O)O)cn(C3CC3)c12` [Compound A, 1-cyclopropyl-6-fluoro-7-(isoindolin-5-yl)-8-methyl-1,4-dihydro-4-oxoquinoline-3-carboxylic acid], the MIC is at most 0.05 µg/mL with S. aureus FDA 209P (S. aureus FDA 209P, Mueller Hinton agar, 37° C., 20 hours, 10^6 cells/plate, read-out: MIC); at most 0.05 µg/mL with S. aureus F-137; at most 0.05 µg/mL with S. aureus F-597; at most 0.05 µg/mL with E. coli NIHJ JC-2 (NIHJJC2, E. coli NIHJ JC-2, Mueller Hinton agar, 37° C., 20 hours, 10^6 cells/plate, read-out: MIC).
